Measured values published in patent US9914735B2, “Heteroaryl Syk inhibitors” (Boehringer Ingelheim International GmbH, priority 2014, dated 2018).
Read-outs that look alike come from different tables or passages of the source.

How the values were obtained:
[1] = Human liver microsomal stability test; type: in vitro ADME; conditions: for microsomal stability Cl [% Qh]: human liver microsomes, Qh = liver blood flow
Protocol: The metabolic degradation for a specific SYK-inhibitor is performed at 37° C. with pooled human liver microsomes (human liver microsomes are commercially available as “BD UltraPool™” by Corning Life Sciences, Fogostraat 12, 1060 LJ Amsterdam, The Netherlands). The final incubation volume of 100 μl per time point contains TRIS buffer pH 7.6 at RT (0.1 M), magnesium chloride (5 mM), microsomal protein (1 mg/ml) and the test compound at a final concentration of 1 μM.
Following a short preincubation period at 37° C., the reaction is initiated by addition of beta-nicotinamide adenine dinucleotide phosphate in its reduced form (NADPH, 1 mM) and terminated by transfering an aliquot into solvent after different time points. Additionally, the NADPH-independent degradation is monitored in incubations without NADPH, terminated at the last time point.
The quenched (terminated) incubations are then pelleted by centrifugation (10000 g, 5 min).
An aliquot of the supernatant is assayed by LC-MS/MS for the remaining amount of parent compound. The half-life (t1/2 INVITRO) is determined by the slope of the semilogarithmic plot of the concentration-time profile.
The intrinsic clearance (CL_[…]) is calculated by considering the amount of protein in the incubation: CL_[…][μl/min/mg protein]=(Ln 2/(t1/2 INVITRO[min]*protein content[mg/ml]))*1000
The protein content [mg/ml] was determined with the “Bicinchoninic Acid Kit” of Sigma Aldrich (commercially available).
The upscaled intrinsic Clearance (CL_UP_INT) is calculated by considering the liver weight [g liver/kg body weight] and the microsomal recovery [mg protein/g liver]: CL_UP_INT[ml/min/kg]=0.001*CL_[…]*liver weight*microsomal recovery • with microsomal recovery=45 mg protein/g liver • with liver weight=25.7 g liver/kg body weight
The percent hepatic blood flow (% Qh) is finally calculated by considering the human liver blood flow Q [ml/min/kg]: % Qh[%]=((Q*CL_UP_INT)/(Q+CL_UP_INT)/Q)*100 • with liver blood flow (Q)=20.7 ml/min/kg.

[2] = target: Recombinant human Syk (amino acids 342-635), GST-Syk kinase fusion protein (Homo sapiens (Human), UniProt P43405); test: Syk kinase test (Kinase Glo luminescence); type: biochemical; conditions: Table 1; read-out: SYK-inhibition IC50-value
Protocol: (§1) The output file of the reader is a csv file that contains the well number and measured relative light units (RLU). For data evaluation and calculation, the measurement of the negative control was set as 100% ctrl and the measurement of the positive control was set as 0% ctrl. Based on this values the % value for the measurement of each substance concentration was calculated using an Assay Explorer software (Accelrys). Normally, the % ctrl values calculated are between 0% and 100% values but may also occur outside these limits in individual cases based on variability or compound characteristics. The IC50 values were calculated from the % ctrl values using Assay Explorer software. Calculation:[y=(a−d)/(1+(x/c)^b)+d] a=low value, d=high value; x=conc M; c=IC50 M; b=hill; y=% ctrl.

[3] = target: Recombinant human Aurora B (amino acids 1-344) (Homo sapiens (Human), UniProt Q96GD4); test: Aurora B kinase test (ADP Glo luminescence); type: biochemical
Protocol: The activity of the Aurora B kinase protein was determined using the ADP Glo® Luminescence Kinase test (Promega; V9103X).
Serial Dilution is done in 1:10 steps in 100% DMSO.
Then 20 μl Kinase detection mix (Detection Buffer #V913B Promega; Kinase Detection Substrate #V914B Promega) were added and incubated for 40 minutes at room temperature.
as §1, with “measured RLU.” for “measured relative light units (RLU).”, “as 0%” for “as 100%”, “as 100%” for “as 0%”, “software. Calculation: [y=(a−d)/(1+(x/c)^b)+d],” for “software. Calculation:[y=(a−d)/(1+(x/c)^b)+d]”

FLT3 = FLT3 (Homo sapiens (Human), UniProt P36888); test: FLT3 kinase test (Z'-LYTE); type: biochemical; conditions: Table 1; read-out: FLT3-inhibition IC50-value
Protocol: The activity of FLT3 is measured using the Z′-LYTETM assay technology from Invitrogen (#PV3191)
The reaction is started by addition of 2.5 μl of the 4×ATP solution.
Positive controls are reaction mixtures containing no test compound; negative controls (blanks) are reaction mixtures containing no kinase. As a further control, the phosphopeptide solution is added to wells without kinase (=100% phosphorylation control).
The reaction is performed for 1 h at room temperature before 5 μl of the development solution is added. After a further incubation for 1 h at room temperature 5 μl of the stop reagent is added.
The output text file is evaluated in an “MS-Excel—VB-Makro” and “GraphPadPrism” (Version 5) (GraphPad Software Inc.) is used to calculate the results. Data for the inhibition of FLT3 are reported in M. data for the inhibition of the protease are reported in % CTL.

[4] = Table 1, read-out: AURB-inhibition IC50-value

Sequence of FLT3 (P36888 27-993): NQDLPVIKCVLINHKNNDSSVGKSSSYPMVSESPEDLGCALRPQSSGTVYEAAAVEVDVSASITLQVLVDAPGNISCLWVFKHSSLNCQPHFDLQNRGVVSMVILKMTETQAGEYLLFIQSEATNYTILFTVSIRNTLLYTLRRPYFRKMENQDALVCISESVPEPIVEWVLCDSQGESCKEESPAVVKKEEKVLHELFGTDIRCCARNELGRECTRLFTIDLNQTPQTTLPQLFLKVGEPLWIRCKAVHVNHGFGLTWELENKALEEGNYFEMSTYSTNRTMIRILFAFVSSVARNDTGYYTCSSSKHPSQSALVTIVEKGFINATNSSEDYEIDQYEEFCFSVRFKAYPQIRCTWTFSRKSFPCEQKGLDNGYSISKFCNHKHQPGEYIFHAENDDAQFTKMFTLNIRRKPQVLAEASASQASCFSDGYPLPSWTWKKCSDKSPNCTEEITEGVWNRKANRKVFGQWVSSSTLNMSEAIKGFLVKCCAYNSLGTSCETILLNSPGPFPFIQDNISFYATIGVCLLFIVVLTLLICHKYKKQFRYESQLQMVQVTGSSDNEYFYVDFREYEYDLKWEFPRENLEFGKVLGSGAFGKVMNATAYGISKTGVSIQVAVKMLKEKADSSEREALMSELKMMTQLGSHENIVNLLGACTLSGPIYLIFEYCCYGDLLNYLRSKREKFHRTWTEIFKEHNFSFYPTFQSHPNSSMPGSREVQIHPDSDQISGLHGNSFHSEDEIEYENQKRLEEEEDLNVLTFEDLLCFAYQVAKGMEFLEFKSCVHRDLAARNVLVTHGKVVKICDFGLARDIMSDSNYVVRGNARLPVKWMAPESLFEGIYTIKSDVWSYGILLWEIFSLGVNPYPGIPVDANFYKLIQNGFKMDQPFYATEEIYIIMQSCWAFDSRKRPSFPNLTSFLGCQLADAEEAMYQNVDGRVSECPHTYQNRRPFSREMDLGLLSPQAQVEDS
Sequence of Recombinant human Aurora B (amino acids 1-344) (Q96GD4 whole entry, the tested form may be a part): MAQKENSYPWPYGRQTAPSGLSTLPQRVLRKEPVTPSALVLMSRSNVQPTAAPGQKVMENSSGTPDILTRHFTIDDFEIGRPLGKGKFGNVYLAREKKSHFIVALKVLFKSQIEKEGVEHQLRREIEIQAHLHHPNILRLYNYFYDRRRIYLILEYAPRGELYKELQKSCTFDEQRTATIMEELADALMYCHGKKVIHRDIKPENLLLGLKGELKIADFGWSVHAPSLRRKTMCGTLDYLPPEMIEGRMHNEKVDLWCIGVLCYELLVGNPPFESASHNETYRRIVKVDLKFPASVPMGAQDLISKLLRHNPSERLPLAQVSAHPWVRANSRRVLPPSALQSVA

Row | Structure (SMILES) | microsomal stability Cl [% Qh] [1] [% Qh] | IC50 [2] [µM] | IC50 [3, 4] [µM] | IC50 (FLT3) [µM] | IC50 ([3]; read-out: IC50-values with regard to AURB) [µM] | human liver microsomal stability CI [1] [% Qh]
1 | C[C@@H](Oc1nc(-c2ccc(N3CCOCC3)nc2)cc2ncccc12)[C@H]1CNC(=O)C1 [45 of WO 2011/092128] | 53 |  |  |  |  | 
2 | Cc1c(-c2cc(O[C@H](C)[C@H]3CNC(=O)C3)c3cccnc3c2)cnn1C [112 of WO 2013/014060] | <23 |  |  |  |  | 
3 | CCCn1cc(-c2cc(O[C@H](C)[C@H]3CNC(=O)C3)c3cccnc3c2)cn1 [114 of WO 2013/014060] | 26 |  |  |  |  | 
4 | CC(C)n1cc(-c2cc(O[C@H](C)[C@H]3CNC(=O)C3)c3cccnc3c2)cn1 [115 of WO 2013/014060] | <23 |  |  |  |  | 
5 | COCCn1cc(-c2cc3nn(C)cc3c(O[C@H](C)[C@H]3CNC(=O)C3)n2)cn1 [Example 57, (4R)-4-[(1R)-1-[6-[1-(2-methoxyethyl)pyrazol-4-yl]-2-methyl-pyrazolo[4,3-c]pyridin-4-yl]oxyethyl]pyrrolidin-2-one] |  | 0.0901 | > 50 | 32 |  | 
6 | C[C@@H](Oc1nc(-c2ccc(C(F)(F)F)cc2)cc2nn(C)cc12)[C@H]1CNC(=O)C1 [Example 60, (4R)-4-[(1R)-1-[2-methyl-6-[4-(trifluoromethyl)phenyl]-pyrazolo[4,3-c]pyridin-4-yl]-oxyethyl]pyrrolidin-2-one] |  | 0.145 | 34.7 | 9.75 |  | 
7 | Cc1nn(C)cc1-c1cc2nn(C)cc2c(O[C@H](C)[C@H]2CNC(=O)C2)n1 [Example 68, (4R)-4-[(1R)-1-[6-(1,3-dimethylpyrazol-4-yl)-2-methyl-pyrazolo[4,3-c]pyridin-4-yl]oxyethyl]pyrrolidin-2-one] |  | 0.0652 | > 50 | 22.4 |  | 
8 | Cc1c(-c2cc3nn(C)cc3c(O[C@H](C)[C@H]3CNC(=O)C3)n2)cnn1C [Example 69, (4R)-4-[(1R)-1-[6-(1,5-dimethylpyrazol-4-yl)-2-methyl-pyrazolo[4,3-c]pyridin-4-yl]oxyethyl]pyrrolidin-2-one] |  | 0.197 | > 50 | 45.1 |  | 
9 | C[C@@H](Oc1nc(-c2ccc3c(c2)CN(C)CC3)cc2nn(C)cc12)[C@H]1CNC(=O)C1 [Example 75, (4R)-4-[(1R)-1-[2-methyl-6-(2-methyl-3,4-dihydro-1H-isoquinolin-7-yl)pyrazolo[4,3-c]pyridin-4-yl]oxyethyl]-pyrrolidin-2-one] |  | 0.0998 | 8.54 | 1.59 |  | 
10 | COc1cc(-c2cc(O[C@H](C)[C@H]3CNC(=O)C3)c3cccnc3c2)cc(OC)c1OC [example 2 of WO2013/014060, reference compound] |  |  |  |  | 16.9 | 81

Continued by falling IC50 [2], values first:

Row | microsomal stability Cl [% Qh] [1] [% Qh] | IC50 [2] [µM] | IC50 [3, 4] [µM] | IC50 (FLT3) [µM] | IC50 ([3]; read-out: IC50-values with regard to AURB) [µM] | human liver microsomal stability CI [1] [% Qh] | Structure (SMILES)
11 |  | 0.0583 | 46.2 | 14.8 |  |  | C[C@@H](Oc1nc(-c2cnn(CCC(F)(F)F)c2)cc2nn(C)cc12)[C@H]1CNC(=O)C1 [Example 76, (4R)-4-[(1R)-1-[2-methyl-6-[1-(3,3,3-trifluoropropyl)-pyrazol-4-yl]pyrazolo[4,3-c]pyridin-4-yl]oxyethyl]-pyrrolidin-2-one]
12 |  | 0.0498 | 43.4 | 3.75 |  |  | C[C@@H](Oc1nc(-c2cc3cccc(Cl)c3[nH]2)cc2nn(C)cc12)[C@H]1CNC(=O)C1 [Example 77, (4R)-4-[(1R)-1-[6-(7-chloro-1H-indol-2-yl)-2-methyl-pyrazolo[4,3-c]pyridin-4-yl]oxyethyl]pyrrolidin-2-on]
13 |  | 0.0473 | > 50 | 13.2 |  |  | C[C@@H](Oc1nc(-c2cnn(C)c2)cc2nn(C)cc12)[C@H]1CNC(=O)C1 [Example 63, (4R)-4-[(1R)-1-[2-methyl-6-(1-methylpyrazol-4-yl)pyrazolo[4,3-c]pyridin-4-yl]oxyethyl]pyrrolidin-2-one]
14 |  | 0.0436 | > 50 | 3.07 |  |  | C[C@@H](Oc1nc(-c2ccc3c(c2)CCN(C)CC3)cc2nn(C)cc12)[C@H]1CNC(=O)C1 [Example 55, (4R)-4-[(1R)-1-[2-methyl-6-(3-methyl-1,2,4,5-tetrahydro-3-benzazepin-7-yl)pyrazolo-[4,3-c]pyridin-4-yl]oxyethyl]-pyrrolidin-2-one]
15 |  | 0.0385 | > 50 | 4.44 |  |  | C[C@@H](Oc1nc(-c2ccc(N3CCOCC3)nc2)cc2nn(C)cc12)[C@H]1CNC(=O)C1 [Example 66, (4R)-4-[(1R)-1-[2-methyl-6-(6-morpholino-3-pyridyl)-pyrazolo[4,3-c]pyridin-4-yl]oxyethyl]pyrrolidin-2-one]
16 |  | 0.0366 | > 50 | 17.1 |  |  | CCn1cc(-c2cc3nn(C)cc3c(O[C@H](C)[C@H]3CNC(=O)C3)n2)cn1 [Example 58, (4R)-4-[(1R)-1-[6-(1-ethylpyrazol-4-yl)-2-methyl-pyrazolo[4,3-c]pyridin-4-yl]oxyethyl]pyrrolidin-2-one]
17 |  | 0.0359 | > 50 | 22 |  |  | C[C@@H](Oc1nc(-c2cnn(C3CC3)c2)cc2nn(C)cc12)[C@H]1CNC(=O)C1 [Example 78, (4R)-4-[(1R)-1-[6-(1-cyclopropylpyrazol-4-yl)-2-methyl-pyrazolo[4,3-c]pyridin-4-yl]oxyethyl]pyrrolidin-2-one]
18 |  | 0.0345 | > 50 | 17 |  |  | C[C@@H](Oc1nc(-c2cnn([C@H]3CCOC3)c2)cc2nn(C)cc12)[C@H]1CNC(=O)C1 [Example 70, (4R)-4-[(1R)-1-[2-methyl-6-[1-[(3S)-tetrahydrofuran-3-yl]pyrazol-4-yl]pyrazolo[4,3-c]pyridin-4-yl]oxyethyl]-pyrrolidin-2-one]
19 |  | 0.0258 | > 50 | 21.6 |  |  | C[C@@H](Oc1nc(-c2cnn(C3CCOCC3)c2)cc2nn(C)cc12)[C@H]1CNC(=O)C1 [Example 64, (4R)-4-[(1R)-1-[2-methyl-6-(1-tetrahydropyran-4-yl-pyrazol-4-yl)pyrazolo[4,3-c]pyridin-4-yl]oxyethyl]-pyrrolidin-2-one]
20 |  | 0.0211 | > 50 | 14.8 |  |  | CC(C)n1cc(-c2cc3nn(C)cc3c(O[C@H](C)[C@H]3CNC(=O)C3)n2)cn1 [Example 65, (4R)-4-[(1R)-1-[6-(1-iso-propylpyrazol-4-yl)-2-methyl-pyrazolo[4,3-c]pyridin-4-yl]-oxyethyl]pyrrolidin-2-one]
21 |  | 0.015 | > 50 | 7.65 |  |  | Cc1cc(-c2cc3nn(C)cc3c(O[C@H](C)[C@H]3CNC(=O)C3)n2)ccc1N1CCCS1(=O)=O [Example 71, (4R)-4-[(1R)-1-[6-[4-(1,1-dioxo-1,2-thiazolidin-2-yl)-3-methyl-phenyl]-2-methyl-pyrazolo[4,3-c]pyridin-4-yl]oxyethyl]pyrrolidin-2-one]
